Measured values: the NIST ThermoML archive (doi:10.1021/acs.jced.6b00202)

COC(C)(C)C [2-methoxy-2-methylpropane]
Liquid, Brillouin light scattering
Settings	speed of sound [m/s]
388.22 K, 1000 kPa	646.4
388.24 K, 2500 kPa	670.7
388.24 K, 10000 kPa	768.1
388.25 K, 8500 kPa	751.1
393.11 K, 5500 kPa	691.8
393.13 K, 1000 kPa	619
393.13 K, 4000 kPa	669.1
393.13 K, 8500 kPa	736.3
393.16 K, 2500 kPa	643.2
393.22 K, 7000 kPa	714.5
393.22 K, 10000 kPa	753.4
398.1 K, 5500 kPa	671.4
398.11 K, 1000 kPa	594.9
398.18 K, 2500 kPa	624.4
398.18 K, 4000 kPa	647.1
398.2 K, 8500 kPa	715.9
398.24 K, 10000 kPa	733.5
398.25 K, 7000 kPa	692.8
403.07 K, 7000 kPa	672.1
403.11 K, 2500 kPa	602.6
403.12 K, 1000 kPa	574.7
403.12 K, 4000 kPa	627.2
403.14 K, 5500 kPa	649.2
403.14 K, 10000 kPa	716.1
403.16 K, 8500 kPa	697.5
408.09 K, 7000 kPa	657.5
408.16 K, 4000 kPa	605.6
408.19 K, 5500 kPa	631.8
408.21 K, 8500 kPa	679.5
408.23 K, 2500 kPa	576.4
408.24 K, 10000 kPa	697.8
413.06 K, 10000 kPa	682.3
413.08 K, 4000 kPa	585.4
413.14 K, 8500 kPa	661.5
413.16 K, 5500 kPa	612.9
413.19 K, 2500 kPa	557.9
413.24 K, 7000 kPa	638.1
418.07 K, 4000 kPa	565.2
418.07 K, 7000 kPa	617.5
418.08 K, 10000 kPa	661.5
418.11 K, 8500 kPa	639.1
418.19 K, 2500 kPa	535.7
418.23 K, 5500 kPa	588.6
423.05 K, 7000 kPa	595.1
423.06 K, 2500 kPa	511.7
423.06 K, 4000 kPa	541.9
423.11 K, 8500 kPa	624.1
423.12 K, 10000 kPa	647.8
423.19 K, 5500 kPa	571.4
428.11 K, 2500 kPa	485.7
428.14 K, 5500 kPa	549.7
428.15 K, 7000 kPa	575.1
428.18 K, 4000 kPa	520.9
428.19 K, 8500 kPa	605.5
428.2 K, 10000 kPa	625.5
433.05 K, 2500 kPa	463.5
433.05 K, 7000 kPa	560.1
433.08 K, 10000 kPa	610.8
433.18 K, 4000 kPa	498.5
433.22 K, 5500 kPa	530.9
433.22 K, 8500 kPa	586.5
438.11 K, 2500 kPa	443
438.13 K, 7000 kPa	540.4
438.13 K, 10000 kPa	590.9
438.14 K, 5500 kPa	507.9
438.16 K, 8500 kPa	569
438.24 K, 4000 kPa	477.2
443.06 K, 4000 kPa	454.3
443.08 K, 5500 kPa	487.7
443.12 K, 10000 kPa	575
443.14 K, 8500 kPa	548.7
443.18 K, 2500 kPa	418.1
443.23 K, 7000 kPa	519.9
448.06 K, 2500 kPa	394.3
448.07 K, 5500 kPa	467.5
448.16 K, 4000 kPa	435.5
448.22 K, 7000 kPa	500.2
448.23 K, 8500 kPa	529.7
448.23 K, 10000 kPa	557.1
453.07 K, 5500 kPa	448.8
453.18 K, 4000 kPa	411.5
453.18 K, 10000 kPa	544
453.2 K, 2500 kPa	372.4
453.21 K, 8500 kPa	515.2
453.24 K, 7000 kPa	483.8
458.06 K, 4000 kPa	389.5
458.08 K, 7000 kPa	464.6
458.12 K, 10000 kPa	524.8
458.18 K, 2500 kPa	350.8
458.22 K, 8500 kPa	497.9
458.24 K, 5500 kPa	426.1
463.1 K, 10000 kPa	507.9
463.13 K, 2500 kPa	326.7
463.14 K, 8500 kPa	480.9
463.16 K, 5500 kPa	409.6
463.23 K, 4000 kPa	368.2
463.25 K, 7000 kPa	445.2
468.06 K, 7000 kPa	427.3
468.1 K, 10000 kPa	491.9
468.15 K, 8500 kPa	459.5
468.19 K, 4000 kPa	347.2
468.22 K, 5500 kPa	389.7
473.07 K, 4000 kPa	324.5
473.11 K, 10000 kPa	479
473.12 K, 8500 kPa	443.1
473.15 K, 7000 kPa	408.5
473.22 K, 5500 kPa	366

Settings	speed of sound [m/s]
393.16 K, Liquid, Brillouin Light Scattering	609.1
398.07 K, Gas, Brillouin light scattering	170
398.11 K, Liquid, Brillouin Light Scattering	580.1
403.24 K, Liquid, Brillouin Light Scattering	558
408.22 K, Gas, Brillouin light scattering	167.8
408.23 K, Liquid, Brillouin Light Scattering	537.6
413.2 K, Liquid, Brillouin Light Scattering	515.8
418.16 K, Gas, Brillouin light scattering	164.7
418.24 K, Liquid, Brillouin Light Scattering	494.4
423.15 K, Liquid, Brillouin Light Scattering	476
428.21 K, Gas, Brillouin light scattering	161.2
428.24 K, Liquid, Brillouin Light Scattering	453.8
433.05 K, Liquid, Brillouin Light Scattering	430.3
438.17 K, Gas, Brillouin light scattering	155.3
438.19 K, Liquid, Brillouin Light Scattering	405.8
443.09 K, Liquid, Brillouin Light Scattering	387.3
448.13 K, Gas, Brillouin light scattering	148.4
448.23 K, Liquid, Brillouin Light Scattering	360.3
453.1 K, Liquid, Brillouin Light Scattering	339.5
458.19 K, Liquid, Brillouin Light Scattering	313.6
458.29 K, Gas, Brillouin light scattering	139.8
463.17 K, Gas, Brillouin light scattering	135.7
463.23 K, Liquid, Brillouin Light Scattering	287.1
468.18 K, Liquid, Brillouin Light Scattering	265
468.26 K, Gas, Brillouin light scattering	130.6
473.15 K, Gas, Brillouin light scattering	124.5
473.17 K, Liquid, Brillouin Light Scattering	236.5
478.08 K, Gas, Brillouin light scattering	119
478.08 K, Liquid, Brillouin Light Scattering	206.1
483.2 K, Liquid, Brillouin Light Scattering	177.7
483.29 K, Gas, Brillouin light scattering	111.8
488.11 K, Liquid, Brillouin Light Scattering	142.8
488.15 K, Gas, Brillouin light scattering	104.9
493.06 K, Liquid, Brillouin Light Scattering	103.7
493.15 K, Gas, Brillouin light scattering	96.9
